In article PMC11243327, “Design, Synthesis, Antitumor, and Antiplasmodial Evaluation of New 7-Chloroquinoline–Benzimidazole Hybrids” (Molecules, 2024):
Structures can show the parent of a compound that is named as a salt. Where two headings read alike, the source gives them in different places.

Legend:
[1] = test system: CaCo-2 (human colorectal adenocarcinoma); assay: Antiproliferative MTT assay, CaCo-2; format: cell-based; settings: mean ± SD of three experiments
Experimental: (§1) The effect of the new synthesized compounds was tested on five human tumor cell lines, HeLa (human cervical adenocarcinoma; from ATCC), CaCo-2 (human colorectal adenocarcinoma), HL-60 (acute promyelocytic leukemia), HuT78 (T-cell lymphoma), and THP-1 (acute monocytic leukemia), as well as one non-tumor cell line, MRC-5 (human fetal lung fibroblasts). The MRC-5 cells were used between 24 and 26 passages. The cells were cultured in two different types of media: DMEM (Gibco Thermo Fisher Scinetific Inc., Runcorn, UK) and RPMI 1640 (Gibco, Thermo Fisher Scinetific Inc., UK). Both media were supplemented with 2 mM glutamine, fetal bovine serum (10%; heat inactivated), and antibiotics (100 U penicillin and 0.1 mg streptomycin). RPMI 1640 was additionally supplemented with 10 mM HEPES and 1 mM sodium pyruvate. Cells growing in a monolayer were cultured in DMEM, while cells growing in suspension were cultured in RPMI 1640. Cells were grown in humidified atmosphere under the conditions of 37 °C/5% CO2 gas in a CO2 incubator (IGO 150 CELLlife^TM, JOUAN, Thermo Fisher Scientific, Waltham, MA, USA).
(§2) Growth-inhibitory activity was assessed using a slightly modified procedure based on the National Cancer Institute’s protocol. Briefly, cells were seeded in 96-well microtiter plates and incubated for 24 h. They were then treated with 10^−7 to 10^−4 M concentrations of the tested compounds for an additional 72 h. After the treatment period, the effects of the tested compounds on the growth rate of the cells were examined using the MTT assay. Absorbance was measured at 595 nm using a microplate reader. The IC50 value, which represents a 50% inhibition of cell growth, and QC calculation were performed using the GraphPadPrism software (La Jolla, USA), v. 5.03. and Excel software, Office 365. The selectivity index was calculated according to the following formula: SI=IC50 value of normal cell line/IC50 value of cancer cell line
(§3) The effect of each concentration was analyzed by plotting the logarithm of the concentration of the evaluated compound against the corresponding percentage inhibition value using least squares.

[2] = test system: P. falciparum Dd2 (multiresistant), erythrocytic stage; assay: Antiplasmodial HRP2 assay, PfDd2; format: cell-based, Plasmodium falciparum; settings: read-out: IC50 PfDd2
Experimental: (§4) Method used to evaluate the antiplasmodial activity of quinoline–benzimidazole hybrids against two P. falciparum strains, chloroquine-sensitive (Pf3D7) and chloroquine-resistant (PfDd2), was previously described. […] Chloroquine was used as a positive control.
(§5) In brief, 96-well plates were pre-coated with the tested compounds at 1:3 dilution before ring-stage parasites were added to the complete culture medium at a hematocrit of 1.5% and a parasitemia of 0.05%. […] All compounds were analyzed in duplicate in at least two independent experiments. The IC50 was determined by nonlinear regression analysis of the logarithmic concentration-response curves using the drc package v3.0-1 of R v4.1.0 [56].

[3] = test system: HuT78 (T-cell lymphoma); assay: Antiproliferative MTT assay, Hut78; format: cell-based, human; settings: mean ± SD of three experiments
Experimental: as §1, §2, §3

[4] = test system: HeLa (human cervical adenocarcinoma); assay: Antiproliferative MTT assay, HeLa; format: cell-based; settings: 72 h, mean ± SD of three experiments
Experimental: as §1, §2, §3

[5] = test system: THP-1 (acute monocytic leukemia); assay: Antiproliferative MTT assay, THP-1; format: cell-based, human; settings: mean ± SD of three experiments
Experimental: as §1, §2, §3

[6] = test system: MRC-5 (human fetal lung fibroblasts); assay: Antiproliferative MTT assay, MRC-5; format: cell-based; settings: 72 h, mean ± SD of three experiments
Experimental: as §1, §2, §3

[7] = test system: HL-60 (acute promyelocytic leukemia); assay: Antiproliferative MTT assay, HL-60; format: cell-based, human; settings: mean ± SD of three experiments
Experimental: as §1, §2, §3

[8] = test system: P. falciparum 3D7 (CQ-susceptible), erythrocytic stage; assay: Antiplasmodial HRP2 assay, Pf3D7; format: cell-based, Plasmodium falciparum; settings: read-out: IC50 Pf3D7
Experimental: as §4, §5

[9] = Plasmodium falciparum, DD2, 72 h, chloroquine-resistant strain, three days incubation, HRP2-ELISA, mean ± SD, n ≥ 2
[10] = Homo sapiens, MRC5, non-tumor cell line
[11] = Plasmodium falciparum, 3D7, 72 h, chloroquine-sensitive strain, three days incubation, HRP2-ELISA, mean ± SD, n ≥ 2

COc1cc(-c2nc3ccccc3[nH]2)ccc1OCCCNc1ccnc2cc(Cl)ccc12 [Compound 15a, N-{[4-(1H-benzo[d]imidazole-2-yl)-2-methoxyphenoxy]propyl}-7-chloroquinolin-4-amine]
IC50 ([1]; Homo sapiens, Caco-2, 72 h): 800 ± 100 nM
IC50 [2, 9]: 11.2 ± 0.5 nM
IC50 ([3]; Homo sapiens, HuT78, 72 h): 1500 ± 300 nM
IC50 ([4]; Homo sapiens, HeLa): 400 ± 100 nM
IC50 ([5]; Homo sapiens, THP-1, 72 h): 2200 ± 500 nM
IC50 [6, 10]: 300 ± 100 nM
IC50 ([7]; Homo sapiens, HL-60, 72 h): 400 ± 100 nM
IC50 [8, 11]: 4.4 ± 0.3 nM
melting point: 179 to 181 °C

Clc1ccc2c(NCCOc3ccc(-c4nc5ccc(Cl)cc5[nH]4)cc3)ccnc2c1 [Compound 10b, 7-chloro-N-{2-[4-(5(6)-chloro-1H-benzo[d]imidazole-2-yl)phenoxy]ethyl}quinolin-4-amine]
IC50 ([1]; Homo sapiens, Caco-2, 72 h): 1900 ± 200 nM
IC50 [2, 9]: 4.9 ± 0.8 nM
IC50 ([3]; Homo sapiens, HuT78, 72 h): 1600 ± 1200 nM
IC50 ([4]; Homo sapiens, HeLa): 2700 ± 200 nM
IC50 ([5]; Homo sapiens, THP-1, 72 h): 3400 ± 800 nM
IC50 [6, 10]: 4000 ± 1100 nM
IC50 ([7]; Homo sapiens, HL-60, 72 h): 2000 ± 400 nM
IC50 [8, 11]: 3.5 ± 1.5 nM
melting point: 222 to 224 °C

N=C(NC1CCCC1)c1ccc2nc(-c3ccc(OCCNc4ccnc5cc(Cl)ccc45)c(Br)c3)[nH]c2c1 (as salt: hydrochloride) [Compound 11d, 2-{3-bromo-4-[2-(7-chloroquinolin-4-ylamino)ethoxy]phenyl}-N-cyclopentyl-1H-benzo[d]imidazole-5(6)-carboximidamide trihydrochloride]
melting point: 234 °C (dec.)

COc1ccc2nc(-c3ccc(OCCNc4ccnc5cc(Cl)ccc45)cc3)[nH]c2c1 [Compound 10c, 7-chloro-N-{2-[4-(5(6)-methoxy-1H-benzo[d]imidazole-2-yl)phenoxy]ethyl}quinolin-4-amine]
IC50 ([1]; Homo sapiens, Caco-2, 72 h): 1700 ± 100 nM
IC50 [2, 9]: 10.1 ± 5 nM
IC50 ([3]; Homo sapiens, HuT78, 72 h): 2300 ± 800 nM
IC50 ([4]; Homo sapiens, HeLa): 2600 ± 400 nM
IC50 ([5]; Homo sapiens, THP-1, 72 h): 3800 ± 400 nM
IC50 [6, 10]: 4900 ± 1700 nM
IC50 ([7]; Homo sapiens, HL-60, 72 h): 1800 ± 500 nM
IC50 [8, 11]: 6.8 ± 1.8 nM
melting point: 248 °C (dec.)

COc1cc(-c2nc3ccc(Cl)cc3[nH]2)ccc1OCCCNc1ccnc2cc(Cl)ccc12 [Compound 15b, 7-chloro-N-{[4-(5(6)-chloro-benzo[d]imidazole-2-yl)-2-methoxyphenoxy]propyl}quinolin-4-amine]
IC50 ([1]; Homo sapiens, Caco-2, 72 h): 1100 ± 600 nM
IC50 [2, 9]: 5.2 ± 0.5 nM
IC50 ([3]; Homo sapiens, HuT78, 72 h): 700 ± 400 nM
IC50 ([4]; Homo sapiens, HeLa): 300 ± 100 nM
IC50 ([5]; Homo sapiens, THP-1, 72 h): 2500 ± 300 nM
IC50 [6, 10]: 300 nM
IC50 ([7]; Homo sapiens, HL-60, 72 h): 200 ± 100 nM
IC50 [8, 11]: 4.7 ± 1.5 nM
melting point: 190 to 192 °C

N=C(NC1CCCC1)c1ccc2nc(-c3ccc(OCCCNc4ccnc5cc(Cl)ccc45)c(Br)c3)[nH]c2c1 [Compound 14d]
IC50 ([1]; Homo sapiens, Caco-2, 72 h): > 100000 nM
IC50 [2, 9]: 451 ± 40.3 nM
IC50 ([3]; Homo sapiens, HuT78, 72 h): 19700 ± 4000 nM
IC50 ([4]; Homo sapiens, HeLa): > 100000 nM
IC50 ([5]; Homo sapiens, THP-1, 72 h): 100000 nM
IC50 [6, 10]: > 100000 nM
IC50 ([7]; Homo sapiens, HL-60, 72 h): 24400 ± 4400 nM
IC50 [8, 11]: 159 ± 22.6 nM

COc1cc(-c2nc3ccc(C(=N)NC4CCCC4)cc3[nH]2)ccc1OCCNc1ccnc2cc(Cl)ccc12 (as salt: hydrochloride) [Compound 12d, 2-{3-methoxy-4-[2-(7-chloroquinolin-4-ylamino)ethoxy]phenyl}-N-cyclopentyl-1H-benzo[d]imidazole-5(6)-carboximidamide trihydrochloride]
melting point: 226 °C (dec.)

N=C(NC1CCCC1)c1ccc2nc(-c3ccc(OCCCNc4ccnc5cc(Cl)ccc45)cc3)[nH]c2c1 [Compound 13d]
IC50 ([1]; Homo sapiens, Caco-2, 72 h): > 100000 nM
IC50 [2, 9]: 198.3 ± 0.1 nM
IC50 ([3]; Homo sapiens, HuT78, 72 h): 15200 ± 3000 nM
IC50 ([4]; Homo sapiens, HeLa): > 100000 nM
IC50 ([5]; Homo sapiens, THP-1, 72 h): 14400 ± 3100 nM
IC50 [6, 10]: 83000 ± 5400 nM
IC50 ([7]; Homo sapiens, HL-60, 72 h): 18200 ± 6700 nM
IC50 [8, 11]: 57.4 ± 1.9 nM

CCN(CC)CCCC(C)Nc1ccnc2cc(Cl)ccc12 (centres unmarked) [CQ, Chloroquine, reference compound]
IC50 ([2]; Plasmodium falciparum, DD2, 72 h): 360 ± 27.1 nM
IC50 ([8]; Plasmodium falciparum, 3D7, 72 h): 11.1 ± 0.5 nM

N=C(NC1CCCC1)c1ccc2nc(-c3ccc(OCCCNc4ccnc5cc(Cl)ccc45)c(Br)c3)[nH]c2c1 (as salt: hydrochloride) [Compound 14d]
melting point: 265 °C (dec.)

N=C(NC1CCCC1)c1ccc2nc(-c3ccc(OCCCNc4ccnc5cc(Cl)ccc45)cc3)[nH]c2c1 (as salt: hydrochloride) [Compound 13d]
melting point: > 275 °C

COc1cc(-c2nc3ccc(C(=N)NC4CCCC4)cc3[nH]2)ccc1OCCNc1ccnc2cc(Cl)ccc12 [Compound 12d, 2-{3-methoxy-4-[2-(7-chloroquinolin-4-ylamino)ethoxy]phenyl}-N-cyclopentyl-1H-benzo[d]imidazole-5(6)-carboximidamide trihydrochloride]
IC50 ([1]; Homo sapiens, Caco-2, 72 h): > 100000 nM
IC50 [2, 9]: 120 ± 7.5 nM
IC50 ([3]; Homo sapiens, HuT78, 72 h): 16100 ± 4700 nM
IC50 ([4]; Homo sapiens, HeLa): > 100000 nM
IC50 ([5]; Homo sapiens, THP-1, 72 h): 100000 nM
IC50 [6, 10]: > 100000 nM
IC50 ([7]; Homo sapiens, HL-60, 72 h): 52500 ± 5100 nM
IC50 [8, 11]: 190 ± 11.5 nM

N=C(NC1CCCC1)c1ccc2nc(-c3ccc(OCCNc4ccnc5cc(Cl)ccc45)c(Br)c3)[nH]c2c1 [Compound 11d, 2-{3-bromo-4-[2-(7-chloroquinolin-4-ylamino)ethoxy]phenyl}-N-cyclopentyl-1H-benzo[d]imidazole-5(6)-carboximidamide trihydrochloride]
IC50 ([1]; Homo sapiens, Caco-2, 72 h): > 100000 nM
IC50 [2, 9]: 984 ± 521 nM
IC50 ([3]; Homo sapiens, HuT78, 72 h): 17300 ± 9200 nM
IC50 ([4]; Homo sapiens, HeLa): > 100000 nM
IC50 ([5]; Homo sapiens, THP-1, 72 h): 33900 ± 3600 nM
IC50 [6, 10]: > 100000 nM
IC50 ([7]; Homo sapiens, HL-60, 72 h): 44300 ± 1200 nM
IC50 [8, 11]: 321 ± 32.8 nM

COc1cc(-c2nc3ccc(C(=N)NC4CCCC4)cc3[nH]2)ccc1OCCCNc1ccnc2cc(Cl)ccc12 (as salt: hydrochloride) [Compound 15d]
melting point: 260 °C (dec.)

N-{2-[4-(1H-benzo[d]imidazole-2-yl)-2-bromophenoxy]propyl}-7-chloroquinolin-4-amine [Compound 14a]
IC50 ([1]; 72 h): 5000 ± 7300 nM
IC50 ([2]; chloroquine-resistant strain, three days incubation, HRP2-ELISA, mean ± SD, n ≥ 2): 13 ± 1.9 nM
IC50 ([3]; 72 h): 1700 ± 400 nM
IC50 [4]: 1200 ± 700 nM
IC50 ([5]; 72 h): 5100 ± 1700 nM
IC50 ([6]; non-tumor cell line): 600 ± 600 nM
IC50 ([7]; 72 h): 700 ± 500 nM
IC50 ([8]; chloroquine-sensitive strain, three days incubation, HRP2-ELISA, mean ± SD, n ≥ 2): 9.3 ± 0.9 nM
